Experiments:
C. ljungdahlii Hbd2 = target: T1, C. ljungdahlii Hbd2 (Clostridium ljungdahlii, UniProt D8GTU3); test: NAD(P)H oxidation at […] nm, E. coli cell-free extract; type: biochemical; settings: 75 uM NADH, 125 uM acetoacetyl-CoA; 100 mM potassium phosphate pH 6.5, 25 mM potassium citrate; vector-extract activity subtracted
T1 construct: gene mmgB_1; full-length gene expressed in E. coli, cell-free extract (bead-beating), not purified; EC 1.1.1.57 printed
T1 sequence (D8GTU3 1-313): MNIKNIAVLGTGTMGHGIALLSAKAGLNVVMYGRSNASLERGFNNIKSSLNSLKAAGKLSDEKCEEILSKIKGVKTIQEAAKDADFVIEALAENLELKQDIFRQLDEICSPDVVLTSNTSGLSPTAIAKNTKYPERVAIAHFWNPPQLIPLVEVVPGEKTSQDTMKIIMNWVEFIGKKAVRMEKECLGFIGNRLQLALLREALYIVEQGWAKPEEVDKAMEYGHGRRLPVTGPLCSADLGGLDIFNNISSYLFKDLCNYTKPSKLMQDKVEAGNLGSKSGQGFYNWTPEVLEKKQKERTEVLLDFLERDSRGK

C. kluyveri Hbd1 = target: T2, C. kluyveri Hbd1 (Clostridium kluyveri, UniProt A5N5D1); test: as above; type: biochemical; settings: 75 uM NADPH, 125 uM acetoacetyl-CoA; 100 mM potassium phosphate pH 6.5, 25 mM potassium citrate
T2 construct: full-length gene expressed in E. coli, cell-free extract (bead-beating), not purified
T2 sequence (A5N5D1 1-282): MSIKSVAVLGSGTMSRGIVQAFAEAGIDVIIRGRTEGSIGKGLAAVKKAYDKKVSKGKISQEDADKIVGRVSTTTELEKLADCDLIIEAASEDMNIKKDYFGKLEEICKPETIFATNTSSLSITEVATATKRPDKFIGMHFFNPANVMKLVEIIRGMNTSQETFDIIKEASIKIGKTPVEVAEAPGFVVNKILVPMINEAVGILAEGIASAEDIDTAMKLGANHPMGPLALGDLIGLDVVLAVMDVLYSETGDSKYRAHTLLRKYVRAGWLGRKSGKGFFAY

SMILES	NAD(P)H oxidation at 340 nm, E. coli cell-free extract (C. ljungdahlii Hbd2)	NAD(P)H oxidation at 340 nm, E. coli cell-free extract (C. kluyveri Hbd1)
NC(=O)C1=CN([C@@H]2O[C@H](COP(=O)(O)OP(=O)(O)OC[C@H]3O[C@@H](n4cnc5c(N)ncnc54)[C@H](O)[C@@H]3O)[C@@H](O)[C@H]2O)C=CC1 [NADH]	we confirmed NADH specificity and acetoacetyl-CoA-dependence	–
CC(=O)CC(=O)SCCNC(=O)CCNC(=O)[C@H](O)C(C)(C)COP(=O)(O)OP(=O)(O)OC[C@H]1O[C@@H](n2cnc3c(N)ncnc32)[C@H](O)[C@@H]1OP(=O)(O)O [acetoacetyl-CoA]	we confirmed NADH specificity and acetoacetyl-CoA-dependence	Both hbd1 and hbd2 E. coli cell free extracts showed low activity without acetoacetyl-CoA
NC(=O)C1=CN([C@@H]2O[C@H](COP(=O)(O)OP(=O)(O)OC[C@H]3O[C@@H](n4cnc5c(N)ncnc54)[C@H](OP(=O)(O)O)[C@@H]3O)[C@@H](O)[C@H]2O)C=CC1 [NADPH]	–	C. kluyveri hbd1 E. coli extracts were used as an NADPH-specific control

— publication PMC9393629, “Acetogenic production of 3-Hydroxybutyrate using a native 3-Hydroxybutyryl-CoA Dehydrogenase” (Frontiers in Microbiology, 2022)
